Results as given in patent US11590117B2, “Treatment of a hematologic malignancy with 2-(4-chlorophenyl)-n-((2-(2,6-dioxopiperidin-3-yl)-1-oxoisoindolin-5-yl)methyl)-2,2-difluoroacetamide” (priority 2016, dated 2023).
Like-named read-outs stand apart in the source and are kept apart here.

Columns and labels:
Assay type in all cases: cell-based
[1] = system: HNT-34; assay: Flow cytometry viable cell counting, 72 hours; conditions: Homo sapiens, HNT-34 as sensitive positive control cell line in PBMC comparison, read-out: cell count IC50
Protocol: (§1) The effects of Compound 1 in healthy PBMCs were also assessed. Compound 1 was added to PBMC s from one donor at time zero and assessed at 72 hours. This was compared to PBMCs that were pre-activated and proliferating on anti-CD3 antibody-coated plates for 72 hours before Compound 1 was added and the cells were incubated for an additional 72 hours. HNT-34 cells were used as a sensitive positive control cell line. Peripheral blood mononuclear cells that were pre-activated were resistant to the antiproliferative effects of Compound 1 (IC50>[…]) as determined by CTG and viable cell count. However, Compound 1 did reduce cell proliferation in PBMCs that were not pre-activated, as measured using two methods, CTG and flow cytometry cell counting (CTG IC50=0.1 μM; cell count IC50=0.5 μM). […] Similar or greater differences in Compound 1-induced elevation of caspase 3/7 and membrane depolarization were seen between pre-activated PBMCs and HNT-34 cells.

[2] = system: PBMCs; assay: Flow cytometry viable cell counting, 72 hours; conditions: Homo sapiens, PBMC, PBMCs not pre-activated, read-out: cell count IC50
Protocol: as §1

[3] = system: Red-labeled AML cell lines; assay: IncuCyte live cell imaging of cell viability, sub-panel of twelve Red-labeled AML cell lines; conditions: Homo sapiens, 96 h
Protocol: Derivation of Red-labeled Acute Myeloid Leukemia Cell Lines: Twelve cell lines, including AML-193, HL-60, KG-1, ML-2, MOLM-13, MV-4-11, NOMO-1, OCI-AML2, OCI-AML3, SIG-M5, TF-1, and THP-1, were stably transduced with Red lentivirus. Cells were plated in 6-well plates in growth media, incubated with 8 µg/mL polybrene (EMD Millipore Cat no. TR-1003-G) followed by infection with CellPlayer™ NucLight™ Red-lentiviral particles (Essen Biosciences Cat no. 4478) at a multiplicity of infectivity (MOI) of 0.5 to 2.5 for 24 hours. MOI refers to the ratio of virus particles to cells. Virus-containing media was replaced with fresh growth media and incubated for an additional 24 to 48 hours, followed by selection with Zeocin (500 to 2000 μg/mL), a derivative of bleomycin (Life Technologies-Invitrogen Cat no. R250-01). Cells were selected with fresh Zeocin every 3 to 4 days for 3 to 8 weeks. Cells were periodically viewed using fluorescent microscopy for nuclear-restricted red fluorescence. Zeocin selection was terminated once the population was confirmed to stably fluoresce red. All Red-labeled cell lines were acclimated to EMEM containing 20% FBS, with or without GM-CSF supplementation, allowing for optimal live cell imaging.
Incubation of Cell Cultures with Compound 1: Compound 1 was provided for studies by Celgene chemistry group at a stock concentration of 30 mM in 20 μL dimethyl sulfoxide (DMSO) frozen. Costar 96-well cell culture plates (Corning Cat no. 3595) were coated with 100 μL of 10 µg/mL fibronectin (Sigma-Aldrich Cat no. F1141) for 4 hours at 37° C. and immediately used or refrigerated overnight for later use. Cells (3000 to 6000 cells) were plated in growth medi in fibronectin-coated 96-well plates and incubated for a minimum of a few hours to overnight. Cells were incubated with a 12-point concentration response in triplicate with Compound 1 ([…]) including DMSO and Media controls. A 3-fold serial dilution of Compound 1 starting from a concentration of 200 μM in 0.6% DMSO (diluted in Media) was performed. For most sensitive cell lines, a 3-fold serial dilution of Compound 1 starting from a concentration of 20 μM in 0.6% DMSO (diluted in media) was performed. A volume of 5 μL or 10 μL for each dilution was added to 100 μL or 200 μL cells, respectively (0.3% DMSO final) and incubated for live cell imaging.
Live Cell Imaging on IncuCyte Zoom: Following incubation of cells with Compound 1, diluted Caspase 3/7 reagent (Essen Biosciences Cat no. 4440) is added to each well. […] Caspase-3/7 activation was quantified using the IncuCyte™ ZOOM basic analyzer. […]
Twelve Red-labeled human AML cell lines, established as described above, were incubated with Compound 1 dose range (0 to 10 μM) and Red fluorescence or Object count was imaged over time, as described above. […]

SMILES: O=C1CCC(N2Cc3cc(CNC(=O)C(F)(F)c4ccc(Cl)cc4)ccc3C2=O)C(=O)N1 (stereo not drawn) [Compound 1, 2-(4-chlorophenyl)-N-((2-(2,6-dioxopiperidin-3-yl)-1-oxoisoindolin-5-yl)methyl)-2,2-difluoroacetamide]
- IC50 [1]: 4 nM
- IC50 [2]: 500 nM
- EC50 ([3]; four moderately sensitive cell lines (TF-1, THP-1, SIG-M5, OCI-AML3), read-out: cell viability EC50 96hr (range)): 58 to 186 nM
- EC50 ([3]; four moderately sensitive cell lines, read-out: cell viability average EC50 96hr): 121 nM
- EC50 ([3]; seven highly sensitive cell lines (AML-193, ML-2, HL-60, KG-1, NOMO-1, MV-4-11, OCI-AML2), read-out: cell viability EC50 96hr (range)): 2 to 40 nM
- EC50 ([3]; seven highly sensitive cell lines, read-out: cell viability average EC50 96hr): 15 nM
